The text below walks through data of patent US20220185811A1, “FGFR4 KINASE INHIBITOR AND PREPARATION METHOD THEREFOR AND USE THEREOF” (SHOUYAO HOLDINGS (BEIJING) CO., LTD., priority 2019, published 2022).

For orientation: IC50 means the concentration at which inhibition is half-maximal. As a reminder, the AUC(0-inf) is the area under the concentration-time curve extrapolated to infinity. The Cmax is the highest concentration seen after dosing. For orientation: Tmax means the time from dosing to the highest level.

Where a name gives a salt, the structure may show the parent alone.

In one data set the target is FGFR-4 kinase (Homo sapiens, UniProt P22455). The data set is described as follows: FGFR-4 kinase activity, homogeneous time-resolved fluorescence (HTRF) method. To be noted: Table 1; ATP 25 μM, FGFR-4 kinase 1 nM; read-out: FGFR4 IC50. It is filed as biochemical. How it is done: 1. In vitro determination of the protein activity of compounds: The FGFR-4 kinase activity detection platform was established by the homogeneous time-resolved fluorescence (HTRF) method, and the activity of the compound was determined. 1000 μM compounds were subjected to 3-fold gradient dilution in 100% DMSO 11 times (12 concentrations in total), 4 μL diluent from each concentration was added to 96 μL of reaction buffer (50 mM HEPES, pH 7.4, 5 mM MnCl2, 0.1 mM NaVO3, 0.001% Tween-20, 0.01% BAS, 1 mM DTT) and mixed well, as a 4* compound (final concentration of 0.017 nM-1000 nM) for later use. 2 * FGFR-4 kinase (final concentration of 1 nM) was formulated using reaction buffer and 4*substrate (ATP+TK peptide) (TK peptide, HTRF® KinEASETM-TK, purchased from Cisbio, TK peptide, final concentration of 1 μM, ATP final concentration of 25 μ M) was formulated using reaction buffer. 2.5 μL of 4*compound and then 5 μL of 2 * FGFR-4 kinase were added to a 384-well plate (OptiPlate-384, purchased from PerkinElmer), the mixture was mixed by centrifugation, and 2.5 μL of 4 * substrate mixture was added to start the reaction (total reaction volume of 10 µL). The 384-well plate was placed in an incubator 23° C. and stirred for 60 min before the reaction was stopped by the addition of 5 μL of Eu^3+cryptate-labeled anti-phosphotyrosine antibody (TRF® KinEASE™-TK, purchased from Cisbio) and 5 μL of Streptavidin-XL-665 (HTRF® KinEASE™-TK, purchased from Cisbio). After incubation in the incubator for 1 h, fluorescence values (excitation at 320 nm, detecting emitted light at 665 nm and 620 nm, and a ratio of the two as enzyme activity) were read on Envision (purchased from PerkinElmer). The enzyme activity of each compound was measured at 12 concentrations, and the ICso value of the compound was calculated using GraphPad Prism 5.0 software.
FGFR-4 kinase, sequence (P22455 22-802): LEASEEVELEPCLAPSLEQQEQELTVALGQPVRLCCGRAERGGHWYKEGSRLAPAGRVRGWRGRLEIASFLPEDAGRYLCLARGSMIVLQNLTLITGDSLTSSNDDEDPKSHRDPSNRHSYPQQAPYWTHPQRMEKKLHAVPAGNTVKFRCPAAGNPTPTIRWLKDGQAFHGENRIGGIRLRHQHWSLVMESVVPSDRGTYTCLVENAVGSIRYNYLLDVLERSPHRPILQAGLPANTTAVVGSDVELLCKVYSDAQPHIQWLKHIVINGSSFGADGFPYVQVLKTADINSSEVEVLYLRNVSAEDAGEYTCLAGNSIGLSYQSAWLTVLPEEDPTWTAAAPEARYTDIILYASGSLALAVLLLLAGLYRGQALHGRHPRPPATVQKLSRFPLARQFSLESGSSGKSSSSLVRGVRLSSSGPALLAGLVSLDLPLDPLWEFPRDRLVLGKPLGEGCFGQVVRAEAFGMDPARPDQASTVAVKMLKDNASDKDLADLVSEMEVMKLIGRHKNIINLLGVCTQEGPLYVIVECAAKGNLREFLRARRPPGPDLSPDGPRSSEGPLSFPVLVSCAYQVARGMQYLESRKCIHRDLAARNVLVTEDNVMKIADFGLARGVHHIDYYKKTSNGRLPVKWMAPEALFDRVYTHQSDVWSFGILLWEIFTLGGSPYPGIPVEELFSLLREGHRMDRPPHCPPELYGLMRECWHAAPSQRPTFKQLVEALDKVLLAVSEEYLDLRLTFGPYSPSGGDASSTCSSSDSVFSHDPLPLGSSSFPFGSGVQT
The FGFR-4 kinase activity detection platform was established by homogeneous time-resolved fluorescence (HTRF) method, and the activity of compound was determined. 1000 μM compounds were subjected to 3-fold gradient dilution in 100% DMSO 11 times (12 concentrations in total), 4 μL of diluent from each concentration was added to 96 μL of reaction buffer (50 mM HEPES, pH 7.4, 5 mM MnCl2, 0.1 mM NaVO3, 0.001% Tween-20, 0.01% BAS, 1 mM DTT) and mixed well, as a 4* compound (final concentration of 0.017 nM-1000 nM) for later use. 2 * FGFR-4 kinase (final concentration of 1 nM) was formulated using reaction buffer and 4*substrate (ATP+TK peptide)(TK peptide, HTRF® KinEASE™-TK, purchased from Cisbio, TK peptide, final concentration of 1 μM, ATP final concentration of 25 μM) was formulated using reaction buffer. 2.5 μL of 4 * compound and then 5 μL of 2 * FGFR-4 kinase were added to a 384-well plate (OptiPlate-384, purchased from PerkinElmer), the mixture was mixed by centrifugation, and 2.5 μL of 4 * substrate mixture was added to start the reaction (total reaction volume of 10 μL). The 384-well plate was placed in an incubator 23° C. and stirred for 60 min before the reaction was stopped by the addition of 5 μL of Eu^3+cryptate-labled anti-phosphotyrosine antibody (TRF® KinEASE™-TK, purchased from Cisbio) and 5 μL of Streptavidin-XL-665 (HTRF® KinEASE™-TK, purchased from Cisbio). After incubation in the incubator for 1 h, fluorescence values (excitation at 320 nm, detecting emitted light at 665 nm and 620 nm, and a ratio of the two as enzyme activity) were read on Envision (purchased from PerkinElmer). The enzyme activity of each compopund was measured at 12 concentrations, and the ICso value of the compound was calculated using GraphPad prism 5.0 software.
(TR-FRET usually uses a lanthanide donor and a delayed reading to cut background.)

Data set [1] relates to Human hepatoma cells Hep3b. Briefly: Cell proliferation inhibition, Cell Titer-Glo. It counts as cell-based. To be noted: Hep3B, 72 h, Table 1, 3 days incubation. How it is done:
2. Determination of cell proliferation activity of compounds:
Cell Titer-Glo ® detection reagent from Promega was used to establish the suspension cell proliferation inhibition screening method. Human hepatoma cells Hep3b (Xiehe Cell Research Center) were cultured in 25 cm^2 or 75 cm^2 plastic tissue culture flasks (Corning®) filled with MEM (Gibco®) medium supplemented with 10% fetal bovine serum (Hyclone®) under 37° C., 95% air and 5% CO2, and subcultured 2-3 times a week.
(§1) Hep3b cells were seeded in a 96-well cell culture plate (Corning®) at a density of 3×10^3 cells/well, […], and cultured under 37° C., 95% air, and 5% CO2. After 24 h the test compound was added: 10 mM compounds (dissolved in DMSO) were subjected to 3-fold gradient dilution in DMSO , […] of diluent from each concentration was added to […] of serum-free medium, and finally […] of compound diluted in the medium was added to the plate seeded with cells. The final concentration of DMSO in the cell culture medium was 0.1% and the final concentration of the test compound was 0.3 nM-[…]. The above cells were incubated for 3 days under 37° C.
After 3 days, the cell viability assay was performed by the Cell Titer-Glo (Promega) kit, and finally, the inhibitory concentration 50% of the compound on cell proliferation, i.e. the IC 50 value, was calculated by the GraphPad Prism 5.0 program.
as §1, with “DMSO,” for “DMSO ,”, “finally,” for “finally”, “of” for “of the”
After 3 days, the cell viability assay was performed by the Cell Titer-Glo (Promega) kit, and finally the inhibitory concentration 50% of the compound on cell proliferation, i.e. the IC 50 value, was calculated by the GraphPad Prism 5.0 program.
(In general: ATP-based viability assays read luminescence as a measure of living cells.)

Data set [2] is described as follows: Pharmacokinetics in male SD rats, single intragastric administration. It counts as in vivo. The following applies: rat, po, 5 mg/kg suspension, plasma, first PK table. How it is done: (§2) Male SD rats (Beijing Vital River Laboratory Animal Technology Co., Ltd.) were divided into groups of 3 rats each. The rats were subjected to 5 mg/kg suspension of the test sample by single intragastric administration, respectively. Animals were fasted overnight prior to the experiment from 10 h before dosing to 4 h after dosing. Blood was collected 0.25, 0.5, 1, 2, 4, 6, 8, and 24 h after administration. After isoflurane anesthesia using a small animal anesthesia machine, 0.3 mL of whole blood samples was collected from the fundus venous plexus, placed in a heparin anticoagulant tube, and were centrifuged at 4° C., 4000 rpm for 5 min, plasma was transferred to the centrifuge tube, and stored at −80° C. until analysis. Samples in the plasma were extracted using protein precipitation and the extracts were analyzed by LC/MS/MS.
as §2, with “taken through” for “collected from”, “-80°” for “−80°”

Regarding `C=CC(=O)Nc1cc(-c2cc3c(cn2)cc(-c2c(Cl)c(OC)cc(OC)c2Cl)c2nccn23)c(OC)cc1N1CC2COCC2C1` (stereo not shown) [Example 4, N-(5-(4-(2,6-dichloro-3,5-dimethoxyphenyl)imidazo[1,2-a][1,6]naphthyridin-8-yl)-4-methoxy-2-(tetrahydro-1H-furo[3,4-c]pyrrol-5(3H)-yl)phenyl)acrylamide], at FGFR-4 kinase, the IC50 was 2.25 nM. `C=CC(=O)Nc1cc(-c2cc3c(cn2)cc(-c2c(Cl)c(OC)cc(OC)c2Cl)c2nccn23)c(OC)cc1N1CCOC2(CC2)C1` [Example 5, N-(5-(4-(2,6-dichloro-3,5-dimethoxyphenyl)imidazo[1,2-a][1,6]naphthyridin-8-yl)-4-methoxy-2-(4-oxa-7-azaspiro[2.5]octan-7-yl)phenyl)acrylamide]: in data set [1], the IC50 amounted to 20.3 nM. For the compound `C=CC(=O)Nc1cc(-c2cc3c(cn2)cc(-c2c(Cl)c(OC)cc(OC)c2Cl)c2nccn23)c(OC)cc1N1CC2CCC(C1)N2C(C)=O` [Example 7, N-(2-(8-acetyl-3,8-diazabicyclo[3 .2.1]octan-3-yl)-5-(4-(2,6-dichloro-3,5-dimethoxyphenyl)imidazo[1,2-a][1,6]naphthyridin-8-yl)-4-methoxyphenyl)acrylamide], the figures for the IC50 (on FGFR-4 kinase; in data set [1]) were 1.74 nM and 83.6 nM, respectively. For `C=CC(=O)Nc1cc(-c2cc3c(cn2)cc(-c2c(Cl)c(OC)cc(OC)c2Cl)c2nccn23)c(OC)cc1N1CCNC2(CC2)C1` [Example 9, N-(5-(4-(2,6-dichloro-3,5-dimethoxyphenyl)imidazo[1,2-a][1,6]naphthyridin-8-yl)-4-methoxy-2-(4,7-diazaspiro[2.5]octan-7-yl)phenyl)acrylamide trifluoroacetate], in that order: 2.43 nM and 74.7 nM. For `C=CC(=O)Nc1cc(-c2cc3c(cn2)cc(-c2c(Cl)c(OC)cc(OC)c2Cl)c2nccn23)c(OC)cc1N1CCN(C(C)=O)C2(CC2)C1` [Example 11, N-(2-(4-acetyl-4,7-diazaspiro[2.5]octan-7-yl)-5-(4-(2,6-dichloro-3,5-dimethoxyphenyl)imidazo[1,2-a][1,6]naphthyridin-8-yl)-4-methoxyphenyl)acrylamide], in that order: 3.82 nM and 68.3 nM. Turning to `C=CC(=O)Nc1cc(-c2cc3c(cn2)cc(-c2c(Cl)c(OC)cc(OC)c2Cl)c2nccn23)c(OC)cc1N1CCC2(CC1)CCN(C1CC1)CC2` [Example 19, N-(2-(9-cyclopropyl-3,9-diazaspiro[5.5]undecan-3-yl)-5-(4-(2,6-dichloro-3,5-dimethoxyphenyl)imidazo[1,2-a][1,6]naphthyridin-8-yl)-4-methoxyphenyl)acrylamide], the IC50 at FGFR-4 kinase was determined as 5.79 nM; in data set [1], 71.7 nM. For the compound `C=CC(=O)Nc1cc(-c2cc3c(cn2)cc(-c2c(Cl)c(OC)cc(OC)c2Cl)c2nccn23)c(OC)cc1N1CCC2(COC2)C1` [Example 20, N-(5-(4-(2,6-dichloro-3,5-dimethoxyphenyl)imidazo[1,2-a][1,6]naphthyridin-8-yl)-4-methoxy-2-(2-oxa-6-azaspiro[3.4]octan-6-yl)phenyl)acrylamide], the IC50 on FGFR-4 kinase stood at 2.54 nM. The same measure, in the same setting: next, `C=CC(=O)Nc1cc(-c2cc3c(cn2)cc(-c2c(Cl)c(OC)cc(OC)c2Cl)c2nccn23)c(OC)cc1N1CCC2(CCN(C)C2)C1` (stereo not shown) [Example 22]: 5.61 nM. `C=CC(=O)Nc1cc(-c2cc3c(cn2)cc(-c2c(Cl)c(OC)cc(OC)c2Cl)c2nccn23)c(OC)cc1N1CCN(C)C2(CC2)C1` [Example 23, N-(5-(4-(2,6-dichloro-3,5-dimethoxyphenyl)imidazo[1,2-a][1,6]naphthyridin-8-yl)-4-methoxy-2-(4-methyl-4,7-diazaspiro[2.5]octan-7-yl)phenyl)acrylamide]: the IC50 on FGFR-4 kinase amounted to 3.85 nM; in data set [1], 142 nM.

Consider `CC#CC(=O)Nc1cc(-c2cc3c(cn2)cc(-c2c(Cl)c(OC)cc(OC)c2Cl)c2nccn23)c(OC)cc1N1C[C@@H]2C[C@H]1CO2` [Example 27, N-(2-((1S,4S)-2-oxa-5-azabicyclo[2.2.1]heptan-5-yl)-5-(4-(2,6-dichloro-3,5-dimethoxyphenyl)imidazo[1,2-a][1,6]naphthyridin-8-yl)-4-methoxyphenyl)but-2-ynamide], for which, in data set [2], the AUC(0-inf) came out at 1860 ng·h/mL, the Cmax stood at 452 ng/mL and the Tmax came out at 3.33 h. In addition, the half-life in data set [2] (read-out: T1/2 (converted)) was 2.73 h. As to `C=CC(=O)Nc1cc(-c2cc3c(cn2)cc(-c2c(Cl)c(OC)cc(OC)c2Cl)c2nccn23)c(OC)cc1N1CCO[C@@H](C)C1` [Example 38, (S)-N-(5-(4-(2,6-dichloro-3,5-dimethoxyphenyl)imidazo[1,2-a][1,6]naphthyridin-8-yl)-4-methoxy-2-(2-methylmorpholino)phenyl)acrylamide], the IC50 on FGFR-4 kinase is 5.07 nM.
